Measurements: patent publication US20240025906A1 (NEURON23, INC., priority 2022, published 2024)
Where two headings read alike, the source gives them in different places.

Key:
TYK2 JH2 = biological target: T1, TYK2 JH2 (Homo sapiens, UniProt P29597); experiment: TYK2 JH2 binding assay (KINOMEscan KdELECT competitive binding); details: TYK2 JH2 domain
T1 construct: purchased DiscoverX (KINOMEscan KdELECT service); host or cells: E. coli BL21-derived (T7 phage display) or HEK-293
Outline: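 Beads carrying a biotinylated ligand were mixed with tagged JH2 kinase and compound (11 points, 3-fold steps, 0.9% DMSO) and shaken 1 h at room temperature. After washing, kinase was released with 0.5 μM untagged ligand over 30 min and measured by qPCR to derive Kd.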

[1] = tested on: JAK1/TYK2 pSTAT5 (Tyr694/699) in THP-1 cell line; experiment: IFNa-stimulated JAK1/TYK2 pSTAT5 (Tyr694/699) inhibition cellular assay, AlphaLISA; assay type: cell-based; details: Homo sapiens, THP-1 cells, AlphaLISA (Assay B)
Outline: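 pSTAT5 (Tyr694/699) in lysates quantified by AlphaLISA (615 nm) after 30 min IFNa stimulation (100 ng/mL stock) of THP-1 cells. The cells, 2e4 per well in HBSS, had first been exposed 1 h at 37° C. to eight 6-fold compound dilutions, 10000 down to 0.04 nM final. IC50 fitted by 4PL regression, bottom 0, Hill slope −1.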

[2] = KINOMEscan KdELECT (Assay A), read-out: Biochemical TYK2_JH2_Kd
[3] = IFNa-stimulated, read-out: Cellular THP1_IFNa-pSTATS_IC50
[4] = DiscoverX KINOMEscan KdELECT (Assay A), read-out: Biochemical TYK2_DiscoverX_JH2_BND_Kd
[5] = IFNa-stimulated, read-out: Cellular_THP1_IFNa-pSTATS_TYK2
[6] = KINOMEscan KdELECT (Assay A), read-out: Biochemical TYK2_DiscoverX_JH2_BND_Kd
[7] = IFNa-stimulated pSTAT5 (Tyr694/699), read-out: Cellular_THP1_IFNa-pSTATS_TYK2

T1 sequence (P29597 589-875 limits assumed): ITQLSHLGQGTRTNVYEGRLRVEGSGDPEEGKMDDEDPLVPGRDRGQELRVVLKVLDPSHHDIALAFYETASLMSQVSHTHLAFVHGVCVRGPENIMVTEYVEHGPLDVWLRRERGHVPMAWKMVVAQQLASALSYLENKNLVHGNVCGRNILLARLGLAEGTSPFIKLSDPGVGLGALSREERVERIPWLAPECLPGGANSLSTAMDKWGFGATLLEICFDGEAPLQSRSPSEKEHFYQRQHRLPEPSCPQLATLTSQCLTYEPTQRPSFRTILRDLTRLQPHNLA

Kd (TYK2 JH2; [4])	IC50 [1, 5]	Kd (TYK2 JH2; [6])	SMILES	other results
–	–	–	C=Cc1cnc(NC)c2cnc(NC(=O)C3CC3)cc12 [Example 71, N-(8-(methylamino)-5-vinyl-2,7-naphthyridin-3-yl)cyclopropanecarboxamide]	Kd (TYK2 JH2; [2]): ≤ 0.1 µM; IC50 [1, 3]: > 0.5 µM
≤ 0.1 µM	≤ 0.5 µM	–	CNc1ncc(-c2nc3ccc(OCc4ccccc4)cn3n2)c2cc(NC(=O)C3CC3)ncc12 [Example 500, N-(5-(6-(benzyloxy)-[1,2,4]triazolo[1,5-a]pyridin-2-yl)-8-(methylamino)-2,7-naphthyridin-3-yl)cyclopropanecarboxamide]	–
≤ 0.1 µM	≤ 0.5 µM	–	CNc1ncc(-c2nc3cc(N4CC5CC(CN(C)C5)C4)ccc3o2)c2cc(NC(=O)C3CC3)ncc12 [Example 325, N-(5-(5-(7-methyl-3,7-diazabicyclo[3.3.1]nonan-3-yl)benzo[d]oxazol-2-yl)-8-(methylamino)-2,7-naphthyridin-3-yl)cyclopropanecarboxamide]	–
≤ 0.1 µM	≤ 0.5 µM	–	CNc1ncc(-c2nc3c(OC4CC4)cccc3o2)c2cc(NC(=O)C3CC3)ncc12 [Example 222, N-(5-(4-cyclopropoxybenzo[d]oxazol-2-yl)-8-(methylamino)-2,7-naphthyridin-3-yl)cyclopropanecarboxamide]	–
–	> 0.5 µM	≤ 0.1 µM	CCNc1ncc(-c2ccccc2)c2cc(NC(=O)C3CC3)ncc12 [Example 846, N-(8-(ethylamino)-5-phenyl-2,7-naphthyridin-3-yl)cyclopropanecarboxamide]	–
≤ 0.1 µM	≤ 0.5 µM	–	[2H]C([2H])([2H])Nc1ncc(-c2nc3ccc(OC)cn3n2)c2cc(NC(=O)[C@H]3C[C@H]3F)ncc12 [Example 568, (1R,2R)-2-fluoro-N-(5-(6-methoxy-[1,2,4]triazolo[1,5-a]pyridin-2-yl)-8-((methyl-d3)amino)-2,7-naphthyridin-3-yl)cyclopropane-1-carboxamide]	–
–	≤ 0.5 µM	≤ 0.1 µM	CNc1ncc(-c2nc3cc(-c4cnn(C)n4)ccc3o2)c2cc(NC(=O)C3CC3)ncc12 [Example 940, N-(5-(5-(2-methyl-2H-1,2,3-triazol-4-yl)benzo[d]oxazol-2-yl)-8-(methylamino)-2,7-naphthyridin-3-yl)cyclopropanecarboxamide]	–
–	> 0.5 µM	0.1 to 1 µM	C=C(c1ccc(N2CCO[C@@H](C)C2)cc1)c1cnc(NC)c2cnc(NC(=O)C3CC3)cc12 [Example 788, (S)—N-(8-(methylamino)-5-(1-(4-(2-methylmorpholino)phenyl)vinyl)-2,7-naphthyridin-3-yl)cyclopropanecarboxamide]	–
–	–	–	CNc1ncc(-c2ccn3nc(N4CCC4)nc3c2)c2cc(NC(=O)C3CC3)ncc12 [Example 156, N-(5-(2-(azetidin-1-yl)-[1,2,4]triazolo[1,5-a]pyridin-7-yl)-8-(methylamino)-2,7-naphthyridin-3-yl)cyclopropanecarboxamide]	Kd (TYK2 JH2; [2]): ≤ 0.1 µM; IC50 [1, 3]: > 0.5 µM
–	≤ 0.5 µM	≤ 0.1 µM	CNc1ncc(C#Cc2ccc3nc(OC)n(C)c3c2)c2cc(NC(=O)C3CC3)ncc12 [Example 719, N-(5-((2-methoxy-1-methyl-1H-benzo[d]imidazol-6-yl)ethynyl)-8-(methylamino)-2,7-naphthyridin-3-yl)cyclopropanecarboxamide]	–
–	–	≤ 0.1 µM	CNc1ncc(C#Cc2ccc3c(c2)CCC3=O)c2cc(NC(=O)C3CC3)ncc12 [Example 1013, N-(8-(methylamino)-5-((1-oxo-2,3-dihydro-1H-inden-5-yl)ethynyl)-2,7-naphthyridin-3-yl)cyclopropanecarboxamide]	IC50 [1, 7]: ≤ 0.5 µM
–	≤ 0.5 µM	≤ 0.1 µM	CNc1ncc(/C=C/c2ccc(O)cc2)c2cc(Nc3ccccn3)ncc12 [Example 795, (E)-4-(2-(1-(methylamino)-6-(pyridin-2-ylamino)-2,7-naphthyridin-4-yl)vinyl)phenol]	–
–	–	≤ 0.1 µM	CNc1ncc(C#Cc2cnc(C)n2C)c2cc(NC(=O)C3CC3)ncc12 [Example 1004, N-(5-((1,2-dimethyl-1H-imidazol-5-yl)ethynyl)-8-(methylamino)-2,7-naphthyridin-3-yl)cyclopropanecarboxamide]	IC50 [1, 7]: ≤ 0.5 µM
–	≤ 0.5 µM	≤ 0.1 µM	CNc1ncc(-c2cc3cc(OC)ccn3n2)c2cc(NC(=O)C3CC3)ncc12 [Example 875, N-(5-(5-methoxypyrazolo[1,5-a]pyridin-2-yl)-8-(methylamino)-2,7-naphthyridin-3-yl)cyclopropanecarboxamide]	–
–	–	–	CNc1ncc(-c2ccn(Cc3nccs3)n2)c2cc(NC(=O)C3CC3)ncc12 [Example 151, N-(8-(methylamino)-5-(1-(thiazol-2-ylmethyl)-1H-pyrazol-3-yl)-2,7-naphthyridin-3-yl)cyclopropanecarboxamide]	Kd (TYK2 JH2; [2]): ≤ 0.1 µM; IC50 [1, 3]: > 0.5 µM
–	≤ 0.5 µM	≤ 0.1 µM	CNc1ncc(-c2nc3cc(N4CC[C@@H](F)C4)ccc3o2)c2cc(NC(=O)C3CC3)ncc12 (single isomer, unassigned) [Example 944]	–
≤ 0.1 µM	≤ 0.5 µM	–	CNc1ncc(-c2nc3cc(OC4CN(C5CCOC5)C4)ccc3o2)c2cc(NC(=O)C3CC3)ncc12 (centres unmarked) [Example 251, N-(8-(methylamino)-5-(5-((1-(tetrahydrofuran-3-yl)azetidin-3-yl)oxy)benzo[d]oxazol-2-yl)-2,7-naphthyridin-3-yl)cyclopropanecarboxamide]	–
–	–	–	CNc1ncc(-c2ncn(C)n2)c2cc(NC(=O)C3CC3)ncc12 [Example 141, N-(S-(1-methyl-1H-1,2,4-triazol-3-yl)-8-(methylamino)-2,7-naphthyridin-3-yl)cyclopropanecarboxamide]	Kd (TYK2 JH2; [2]): ≤ 0.1 µM; IC50 [1, 3]: > 0.5 µM
–	≤ 0.5 µM	≤ 0.1 µM	CNc1ncc(-c2nc(-c3ncn(C)n3)co2)c2cc(NC(=O)C3CC3)ncc12 [Example 830, N-(5-(4-(1-methyl-1H-1,2,4-triazol-3-yl)oxazol-2-yl)-8-(methylamino)-2,7-naphthyridin-3-yl)cyclopropanecarboxamide]	–
–	–	–	CNc1ncc(Br)c2cc(NC(=O)C3CC3)ncc12 [Example 3, N-(5-bromo-8-(methylamino)-2,7-naphthyridin-3-yl)cyclopropanecarboxamide]	Kd (TYK2 JH2; [2]): ≤ 0.1 µM; IC50 [1, 3]: > 0.5 µM
–	≤ 0.5 µM	≤ 0.1 µM	CNc1ncc(-c2nc3cc([C@]45C[C@H](CO4)C5)ccc3o2)c2cc(NC(=O)C3CC3)ncc12 [Example 946, N-(5-(5-((1s,4s)-2-oxabicyclo[2.1.1]hexan-1-yl)benzo[d]oxazol-2-yl)-8-(methylamino)-2,7-naphthyridin-3-yl)cyclopropanecarboxamide]	–
≤ 0.1 µM	≤ 0.5 µM	–	CNc1ncc(-c2nc3cc(N4CC(C)(C)C4)ccc3o2)c2cc(NC(=O)C3CC3)ncc12 [Example 288, N-(5-(5-(3,3-dimethylazetidin-1-yl)benzo[d]oxazol-2-y1)-8-(methylamino)-2,7-naphthyridin-3-yl)cyclopropanecarboxamide]	–
≤ 0.1 µM	≤ 0.5 µM	–	CNc1ncc(-c2nc3c(N4CC(OC)C4)cccc3o2)c2cc(NC(=O)C3CC3)ncc12 [Example 221, N-(5-(4-(3-methoxyazetidin-1-yl)benzo[d]oxazol-2-yl)-8-(methylamino)-2,7-naphthyridin-3-yl)cyclopropanecarboxamide]	–
≤ 0.1 µM	≤ 0.5 µM	–	CNc1ncc(-c2nc3ccc(N4CCO[C@@H](C)C4)cn3n2)c2cc(Nc3cc(C)n(C)n3)ncc12 [Example 544, (S)—N^6-(1,5-dimethyl-1H-pyrazol-3-yl)-N^1-methyl-4-(6-(2-methylmorpholino)-[1,2,4]triazolo[1,5-a]pyridin-2-yl)-2,7-naphthyridine-1,6-diamine]	–
–	≤ 0.5 µM	≤ 0.1 µM	CNc1ncc(C#Cc2ccc(Oc3nccn3C)cc2)c2cc(NC(=O)C3CC3)ncc12 [Example 966, N-(5-((4-((1-methyl-1H-imidazol-2-yl)oxy)phenyl)ethynyl)-8-(methylamino)-2,7-naphthyridin-3-yl)cyclopropanecarboxamide]	–
≤ 0.1 µM	≤ 0.5 µM	–	CNc1ncc(-c2nc3cc(OCCS(C)(=O)=O)ccc3o2)c2cc(NC(=O)C3CC3)ncc12 [Example 354, N-(8-(methylamino)-5-(5-(2-(methylsulfonyl)ethoxy)benzo[d]oxazol-2-yl)-2,7-naphthyridin-3-yl)cyclopropanecarboxamide]	–
–	–	–	CNc1ncc(-c2ocnc2C)c2cc(NC(=O)C3CC3)ncc12 [Example 30, N-(8-(methylamino)-5-(4-methyloxazol-5-yl)-2,7-naphthyridin-3-yl)cyclopropanecarboxamide]	Kd (TYK2 JH2; [2]): ≤ 0.1 µM; IC50 [1, 3]: > 0.5 µM
–	–	–	CNc1ncc(-c2nc(-c3ccccc3)co2)c2cc(NC(=O)C3CC3)ncc12 [Example 157, N-(8-(methylamino)-5-(4-phenyloxazol-2-yl)-2,7-naphthyridin-3-yl)cyclopropanecarboxamide]	Kd (TYK2 JH2; [2]): ≤ 0.1 µM; IC50 [1, 3]: ≤ 0.5 µM
